Data as given in the supplement of paper PMC10627819.

Columns and labels:
B. subtilis 168 [1] = assay: Bliss interaction score (quartile over a dose matrix) (fitness difference); higher = more antagonism (negative = synergy)
Summary of the method: (§1)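 At entry into stationary phase, OD595 was recorded and divided by the robust mean of the no-drug wells on that plate, with any value above 1 set to 1. This gives the fitness measure used throughout. Single-drug fitness was inferred from combination data, and the Bliss score, observed minus product-expected fitness, is shown as quartiles across technical, biological and donor/recipient replicates.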

S. aureus Newman [2] = assay: as above
Summary of the method: as §1

S. pneumoniae D39V [3] = assay: as above
Summary of the method: as §1

S. aureus DSM 20231 = assay: as above
Summary of the method: as §1

B. subtilis 168 [4] = assay: fitness (endpoint OD595 vs no drug) (fraction); higher = more growth
Summary of the method: (§2)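 Volumes were 30 µl per well, or 55 µl for S. pneumoniae, in 384-well plates inoculated at OD595 0.01. Media were TSB, LB Lennox or CY at 37 °C, and OD595 was read every 30 min for 14 h with first-reading background subtraction. Fitness is the ratio of optical density at stationary-phase entry to the robust mean of no-drug controls. That ratio is capped at 1.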

S. aureus Newman [5] = assay: as above
Summary of the method: as §2

S. pneumoniae D39V [6] = assay: as above
Summary of the method: as §2
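Throughout, for Bliss interaction score (quartile over a dose matrix): first quartile when negative (synergy) and third quartile when positive (antagonism).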

O=C(O)c1cn(C2CC2)c2cc(N3CCNCC3)c(F)cc2c1=O [Ciprofloxacin] + Cc1ncc([N+](=O)[O-])n1CCO [Metronidazole]
Settings	Bliss interaction score
B. subtilis 168 [1]	0.0696
S. aureus DSM 20231	0.0471
S. aureus Newman [2]	0.0782
S. pneumoniae D39V [3]	0.0544

Settings	fitness
B. subtilis 168 [4], first compound 0.0098 µg/mL, partner 0.625 µg/mL	0.951
B. subtilis 168 [4], first compound 0.0098 µg/mL, partner 1.25 µg/mL	0.922
B. subtilis 168 [4], first compound 0.0098 µg/mL, partner 2.5 µg/mL	0.89
B. subtilis 168 [4], first compound 0.0195 µg/mL, partner 0.625 µg/mL	0.771
B. subtilis 168 [4], first compound 0.0195 µg/mL, partner 1.25 µg/mL	0.75
B. subtilis 168 [4], first compound 0.0195 µg/mL, partner 2.5 µg/mL	0.727
B. subtilis 168 [4], first compound 0.039 µg/mL, partner 1.25 µg/mL	0.29
B. subtilis 168 [4], first compound 0.039 µg/mL, partner 2.5 µg/mL	0.222
S. aureus Newman [5], first compound 0.0375 µg/mL, partner 0.625 µg/mL	0.649
S. aureus Newman [5], first compound 0.0375 µg/mL, partner 1.25 µg/mL	0.694
S. aureus Newman [5], first compound 0.0375 µg/mL, partner 2.5 µg/mL	0.693
S. aureus Newman [5], first compound 0.075 µg/mL, partner 0.625 µg/mL	0.725
S. aureus Newman [5], first compound 0.075 µg/mL, partner 2.5 µg/mL	0.732
S. aureus Newman [5], first compound 0.15 µg/mL, partner 2.5 µg/mL	0.0713
S. pneumoniae D39V [6], first compound 0.125 µg/mL, partner 1.073 µg/mL	0.935
S. pneumoniae D39V [6], first compound 0.125 µg/mL, partner 1.25 µg/mL	0.98
S. pneumoniae D39V [6], first compound 0.125 µg/mL, partner 2.145 µg/mL	0.894
S. pneumoniae D39V [6], first compound 0.125 µg/mL, partner 2.5 µg/mL	0.987
S. pneumoniae D39V [6], first compound 0.125 µg/mL, partner 4.29 µg/mL	0.916
S. pneumoniae D39V [6], first compound 0.125 µg/mL, partner 5 µg/mL	0.983
S. pneumoniae D39V [6], first compound 0.25 µg/mL, partner 1.073 µg/mL	0.923
S. pneumoniae D39V [6], first compound 0.25 µg/mL, partner 2.145 µg/mL	0.895
S. pneumoniae D39V [6], first compound 0.25 µg/mL, partner 4.29 µg/mL	0.892
S. pneumoniae D39V [6], first compound 0.5 µg/mL, partner 1.073 µg/mL	0.711
S. pneumoniae D39V [6], first compound 0.5 µg/mL, partner 2.5 µg/mL	0.781
S. pneumoniae D39V [6], first compound 0.5 µg/mL, partner 4.29 µg/mL	0.69
S. pneumoniae D39V [6], first compound 0.5 µg/mL, partner 5 µg/mL	0.81

fitness, one replicate
Settings	partner 0.781 µg/mL	partner 1.25 µg/mL	partner 1.562 µg/mL	partner 2.5 µg/mL	partner 3.124 µg/mL	partner 5 µg/mL
S. aureus Newman [5], first compound 0.0375 µg/mL	0.653	–	0.663	–	0.644	–
S. aureus Newman [5], first compound 0.075 µg/mL	0.648	–	0.736	–	0.703	–
S. aureus Newman [5], first compound 0.15 µg/mL	0.0339	–	0.0507	–	0.0416	–
S. pneumoniae D39V [6], first compound 0.25 µg/mL	–	0.903	–	0.911	–	0.902

O=C(O)c1cn(C2CC2)c2cc(N3CCNCC3)c(F)cc2c1=O [Ciprofloxacin] + O=C(O[C@@H]1Cc2c(O)cc(O)cc2O[C@@H]1c1cc(O)c(O)c(O)c1)c1cc(O)c(O)c(O)c1 [EGCG]
Settings	Bliss interaction score
B. subtilis 168 [1]	0.149
S. aureus DSM 20231	0.0949
S. aureus Newman [2]	-0.0544
S. pneumoniae D39V [3]	-0.0717

fitness
Settings	partner 6.25 µg/mL	partner 12.5 µg/mL	partner 25 µg/mL	partner 50 µg/mL
B. subtilis 168 [4], first compound 0.0098 µg/mL	0.878	–	–	–
B. subtilis 168 [4], first compound 0.0195 µg/mL	0.741	0.54	0.375	–
B. subtilis 168 [4], first compound 0.039 µg/mL	–	0.35	0.295	–
S. aureus Newman [5], first compound 0.0375 µg/mL	–	0.666	0.557	0.544
S. aureus Newman [5], first compound 0.075 µg/mL	–	0.55	0.534	0.609
S. aureus Newman [5], first compound 0.15 µg/mL	–	0.0805	0.0356	0.053
S. pneumoniae D39V [6], first compound 0.125 µg/mL	–	0.931	0.907	0.971
S. pneumoniae D39V [6], first compound 0.25 µg/mL	–	0.796	0.889	0.69

COc1cccc2c1C(=O)c1c(O)c3c(c(O)c1C2=O)C[C@@](O)(C(=O)CO)C[C@@H]3O[C@H]1C[C@H](N)[C@H](O)[C@H](C)O1 [Doxorubicin] + CC(C1CCC(C(O1)OC2C(CC(C(C2O)OC3C(C(C(CO3)(C)O)NC)O)N)N)N)NC [Gentamicin]
main component drawn
Settings	Bliss interaction score
B. subtilis 168 [1]	-0.258
S. aureus DSM 20231	0.037
S. aureus Newman [2]	-0.0672
S. pneumoniae D39V [3]	0.0449

main component drawn
Settings	fitness
B. subtilis 168 [4], first compound 0.625 µg/mL, partner 0.0625 µg/mL	0.905
B. subtilis 168 [4], first compound 0.625 µg/mL, partner 0.25 µg/mL	0.079
B. subtilis 168 [4], first compound 1.25 µg/mL, partner 0.0625 µg/mL	0.804
B. subtilis 168 [4], first compound 1.25 µg/mL, partner 0.25 µg/mL	0.086
B. subtilis 168 [4], first compound 2.5 µg/mL, partner 0.25 µg/mL	0.0548
S. aureus Newman [5], first compound 0.625 µg/mL, partner 0.375 µg/mL	0.753
S. aureus Newman [5], first compound 0.625 µg/mL, partner 0.5 µg/mL	0.841
S. aureus Newman [5], first compound 0.625 µg/mL, partner 0.75 µg/mL	0.778
S. aureus Newman [5], first compound 0.625 µg/mL, partner 1 µg/mL	0.937
S. aureus Newman [5], first compound 0.625 µg/mL, partner 1.5 µg/mL	0.777
S. aureus Newman [5], first compound 0.625 µg/mL, partner 2 µg/mL	0.875
S. aureus Newman [5], first compound 1.25 µg/mL, partner 0.375 µg/mL	0.794
S. aureus Newman [5], first compound 1.25 µg/mL, partner 0.5 µg/mL	0.783
S. aureus Newman [5], first compound 1.25 µg/mL, partner 0.75 µg/mL	0.784
S. aureus Newman [5], first compound 1.25 µg/mL, partner 1 µg/mL	0.826
S. aureus Newman [5], first compound 1.25 µg/mL, partner 1.5 µg/mL	0.793
S. aureus Newman [5], first compound 1.25 µg/mL, partner 2 µg/mL	0.887
S. aureus Newman [5], first compound 2.5 µg/mL, partner 0.375 µg/mL	0.774
S. aureus Newman [5], first compound 2.5 µg/mL, partner 0.5 µg/mL	0.734
S. aureus Newman [5], first compound 2.5 µg/mL, partner 0.75 µg/mL	0.788
S. aureus Newman [5], first compound 2.5 µg/mL, partner 1 µg/mL	0.779
S. aureus Newman [5], first compound 2.5 µg/mL, partner 1.5 µg/mL	0.796
S. aureus Newman [5], first compound 2.5 µg/mL, partner 2 µg/mL	0.809
S. pneumoniae D39V [6], first compound 0.25 µg/mL, partner 2 µg/mL	0.919
S. pneumoniae D39V [6], first compound 0.25 µg/mL, partner 4 µg/mL	0.919
S. pneumoniae D39V [6], first compound 0.25 µg/mL, partner 8 µg/mL	0.882
S. pneumoniae D39V [6], first compound 0.5 µg/mL, partner 2 µg/mL	0.937
S. pneumoniae D39V [6], first compound 0.5 µg/mL, partner 4 µg/mL	0.943
S. pneumoniae D39V [6], first compound 0.5 µg/mL, partner 8 µg/mL	0.848
S. pneumoniae D39V [6], first compound 1 µg/mL, partner 2 µg/mL	0.806
S. pneumoniae D39V [6], first compound 1 µg/mL, partner 4 µg/mL	0.822
S. pneumoniae D39V [6], first compound 1 µg/mL, partner 8 µg/mL	0.76
